In patent publication US20220395472A1 (Dermavant Sciences GmbH, priority 2021, published 2022):

Test system: adults with plaque psoriasis
Assay: Long-term extension study (PSOARING 3): PASI score, PASI75, PASI90
Assay type: in vivo, human
Excerpt: The PASI scoring system is a widely used, standard, clinical tool for assessing the severity of psoriasis that takes into account the overall severity of erythema (redness), induration (plaque thickness), scale, and the extent of % BSA affected with psoriasis. The 3 clinical signs are each graded on a 5 point scale (0 to 4) and the % BSA affected is scored on a 7 point scale (0 to 6) for each of the 4 specified body regions (head, upper extremities, trunk, and lower extremities). Individual scores are multiplied by a weighted factor for each body region; the sum of these scores gives the overall PASI score. Higher scores indicate more severe disease. PASI is a static assessment made without reference to previous scores. Details on PASI calculation can be found in Appendix 2 of the protocol.

[1] = Week 16 LOCF, Tapinarof (Pivotal)
[2] = Week 16 LOCF, Vehicle (Pivotal)
[3] = Week 16 OC, Tapinarof (Pivotal)
[4] = Week 40 LOCF, Tapinarof (Pivotal)
[5] = Week 40 LOCF, Vehicle (Pivotal)
[6] = Week 40 OC, Tapinarof (Pivotal)

CC(C)c1c(O)cc(/C=C/c2ccccc2)cc1O [Tapinarof Cream 1%]
PASI, Observed, Mean (Baseline, Overall): 4.76
PASI, Observed, Median (Baseline, Overall): 3.40
PASI, Observed, Mean (Baseline, Tapinarof (Pivotal)): 3.28
PASI, Observed, Median (Baseline, Tapinarof (Pivotal)): 2.30
PASI, CFBL, Mean (Week 16 LOCF, Overall): −1.80
PASI, CFBL, Median (Week 16 LOCF, Overall): −0.90
PASI, Observed, Mean (Week 16 LOCF, Overall): 2.99
PASI, Observed, Median (Week 16 LOCF, Overall): 1.80
PASI, Percent CFBL, Mean (Week 16 LOCF, Overall): −20.93%
PASI, Percent CFBL, Median (Week 16 LOCF, Overall): −40.91%
PASI, CFBL, Mean [1]: −0.54
PASI, CFBL, Median [1]: −0.20
PASI, Observed, Mean [1]: 2.74
PASI, Observed, Median [1]: 1.80
PASI, Percent CFBL, Mean [1]: −3.20%
PASI, Percent CFBL, Median [1]: −25.00%
PASI, CFBL, Mean [2]: −4.24
PASI, CFBL, Median [2]: −3.80
PASI, Observed, Mean [2]: 3.47
PASI, Observed, Median [2]: 2.40
PASI, Percent CFBL, Mean [2]: −51.02%
PASI, Percent CFBL, Median [2]: −59.38%
PASI, CFBL, Mean (Week 16 OC, Overall): −1.99
PASI, CFBL, Median (Week 16 OC, Overall): −1.00
PASI, Observed, Mean (Week 16 OC, Overall): 2.57
PASI, Observed, Median (Week 16 OC, Overall): 1.80
PASI, Percent CFBL, Mean (Week 16 OC, Overall): −25.35%
PASI, Percent CFBL, Median (Week 16 OC, Overall): −44.72%
PASI, CFBL, Mean [3]: −0.67
PASI, CFBL, Median [3]: −0.40
PASI, Observed, Mean [3]: 2.38
PASI, Observed, Median [3]: 1.60
PASI, Percent CFBL, Mean [3]: −7.79%
PASI, Percent CFBL, Median [3]: −30.00%
PASI, CFBL, Mean (Week 16 OC, Vehicle (Pivotal)): −4.59
PASI, CFBL, Median (Week 16 OC, Vehicle (Pivotal)): −3.80
PASI, Observed, Mean (Week 16 OC, Vehicle (Pivotal)): 2.95
PASI, Observed, Median (Week 16 OC, Vehicle (Pivotal)): 2.10
PASI, Percent CFBL, Mean (Week 16 OC, Vehicle (Pivotal)): −55.09%
PASI, Percent CFBL, Median (Week 16 OC, Vehicle (Pivotal)): −64.02%
PASI, CFBL, Median (Week 40 LOCF, Overall): −0.90
PASI, Observed, Mean (Week 40 LOCF, Overall): 2.97
PASI, Observed, Median (Week 40 LOCF, Overall): 1.80
PASI, Percent CFBL, Mean (Week 40 LOCF, Overall): −10.45%
PASI, Percent CFBL, Median (Week 40 LOCF, Overall): −44.44%
PASI, CFBL, Mean [4]: −0.48
PASI, CFBL, Median [4]: −0.20
PASI, Observed, Mean [4]: 2.80
PASI, Observed, Median [4]: 1.80
PASI, Percent CFBL, Mean [4]: 11.96%
PASI, Percent CFBL, Median [4]: −27.27%
PASI, CFBL, Mean [5]: −4.42
PASI, CFBL, Median [5]: −3.90
PASI, Observed, Mean [5]: 3.28
PASI, Observed, Median [5]: 2.00
PASI, Percent CFBL, Mean [5]: −48.42%
PASI, Percent CFBL, Median [5]: −68.66%
PASI, CFBL, Mean (Week 40 OC, Overall): −2.14
PASI, CFBL, Median (Week 40 OC, Overall): −1.20
PASI, Observed, Mean (Week 40 OC, Overall): 2.36
PASI, Observed, Median (Week 40 OC, Overall): 1.60
PASI, Percent CFBL, Mean (Week 40 OC, Overall): −16.18%
PASI, Percent CFBL, Median (Week 40 OC, Overall): −56.70%
PASI, CFBL, Mean [6]: −0.51
PASI, CFBL, Median [6]: −0.30
PASI, Observed, Mean [6]: 2.38
PASI, Observed, Median [6]: 1.60
PASI, Percent CFBL, Mean [6]: 8.49%
PASI, Percent CFBL, Median [6]: −35.24%
PASI, CFBL, Mean (Week 40 OC, Vehicle (Pivotal)): −5.53
PASI, CFBL, Median (Week 40 OC, Vehicle (Pivotal)): −4.80
PASI, Observed, Mean (Week 40 OC, Vehicle (Pivotal)): 2.31
PASI, Observed, Median (Week 40 OC, Vehicle (Pivotal)): 1.40
PASI, Percent CFBL, Mean (Week 40 OC, Vehicle (Pivotal)): −60.12%
PASI, Percent CFBL, Median (Week 40 OC, Vehicle (Pivotal)): −76.39%
